Patent US20030031658A1, “Targeting of endosomal growth factor processing as anti-cancer therapy” (priority 1999, published 2003)

Assays:
H-59 tumor cells = conditions: in vivo; cited from earlier work
[1] = system: IGF-IR β subunit and substrates; assay: Immunoprecipitation and anti-phosphotyrosine Western blot, MCF-7; assay type: cell-based, human
Procedure: (§1) Cells were then washed with PBS, solubilized in 30 mM Hepes pH 7.4, 150 mM NaCl, 1% Triton X-100, and spun at maximal speed in a microfuge for 15 min. Cell lysates (1 to 3 mg) were then immunoprecipitated respectively with anti-Shc, anti-IRS-1 or anti-IGF-IR antibodies overnight at 4° C. Immunoprecipitates were collected by addition of Protein A-Sepharose beads, washed three times with lysis buffer and resuspended finally in Laemmli sample buffer (Long et al 1986a). Immunoprecipitates were resolved by SDS-PAGE and transferred onto nitrocellulose membranes followed by immunoblotting with anti-phosphotyrosine antibodies or with antibodies to IRS-1, Shc or IGF-1R followed by HRP—conjugated goat anti-mouse or goat anti-rabbit IgG antibodies.

MCF-7 cells = assay: IGF-I induced thymidine incorporation with E-64, MCF-7; assay type: cell-based, human
human IGF-I receptor = assay: Fluorocytometry of cell surface IGF-1 receptors with mAb αIR3, MCF-7; assay type: cell-based
Procedure: (§2) The ligand-binding assay and fluorocytometry were used to measure cell surface IGF-1 receptors on the murine H-59 and human MCF-7 cells, respectively. […] Incubation was for 1 h at 37° C. following which the cells were rinsed and lysed in 0.01 N NaOH containing 0.1% Triton X-100 and 0.1% SDS and the radioactivity measured. The number of cells/plate at the time of the assay was determined from triplicate control wells which were manipulated in a similar manner. The Ligand program (27, 28) was used to calculate the number of IGF-1 binding sites per cell. IGF-1 receptors on MCF-7 cells were immunofluorescence labeled using 5 μg/ml mAb αIR3 and an FITC-conjugated goat anti-mouse IgG (diluted 1:50). […] Labeled cells were fixed in PBS containing 1% formalin and analyzed using a FACS Calibur System (Becton-Dickinson, San Jose, Calif.).

[2] = system: IGF-IR β subunit and substrates; assay: Immunoprecipitation and anti-phosphotyrosine Western blot, H-59; assay type: cell-based, murine
Procedure: as §1

IGF-IR = IGF-IR mRNA and total immunoprecipitable receptor levels; assay type: cell-based; conditions: H-59 and MCF-7
Procedure: as §1

[3] = system: endosomal IGF-I proteolysis; assay: IGF-1 proteolysis assay, liver endosomal extract; assay type: biochemical, rat
Procedure: H-59 is a highly metastatic subline of the Lewis lung carcinoma with metastatic predilection for the liver, (Brodt et al 1986). Human breast carcinoma cell line MCF-7 was a gift from Dr. Mader (Dept of Biochemistry, University of Montreal, PQ, Canada). Endosomal fractions were prepared from livers of male Sprague-Dawley rats after an 18 h period of fasting. The livers were homogenized and the endosomal fractions isolated by discontinuous sucrose gradient centrifugation and collected at the 0.25 M to 1.0 M sucrose interface (20, 21, 24). The soluble extract (ENs) from the endosomal fractions was isolated by freeze/thawing in 5 mM Na-phosphate pH 7.4, and disrupted in the same hypotonic medium using a small Dounce homogenizer (15 strokes with the tight Type A pestle) followed by centrifugation at 300,000×gav for 30 min as described previously (20, 21, 24).
These preparations were incubated for various lengths of time at 37° C. with 10-^6 M unlabeled or 50,000 cpm [^125I]-labeled IGF-1 in 200 or 400 μl of 50 mM citrate-phosphate pH 5, respectively. The integrity of the radiolabeled ligand was assessed by precipitation with 10% trichloroacetic acid (Authier et al, 1995). […] Eluates were monitored on-line for absorbance at 214 nm with a LC spectrophotometer.

MMP-2 = assay: IGF-1-mediated induction of MMP-2 synthesis (Northern, Western, zymography); assay type: cell-based, murine
Source text: This medium was replenished on alternate days for 12 days. […] Blots were probed with a 1:500 dilution of mAb Ab-45 to MMP-2 and an alkaline phosphatase conjugated affinity purified, goat anti rabbit IgG, diluted 1:2000. For Northern blotting, a ^32P-labeled 1.1-Kb human MMP-2 and an 800-bp rat cyclophilin cDNA fragment were used as hybridization probes.

[4] = system: IGF-I binding sites on H-59 cells; assay: Ligand-binding assay of cell surface IGF-1 receptors, H-59; set-up: species or system murine
Procedure: as §2

H-59 cells = assay: IGF-I induced thymidine incorporation with E-64, H-59; assay type: cell-based, murine
[5] = system: IGF-I proteolysis in H-59 and MCF-7 cell lysates; assay: IGF-1 proteolysis assay, tumor cell lysates; assay type: biochemical
Procedure: These preparations were incubated for various lengths of time at 37° C. with 10-^6 M unlabeled or 50,000 cpm [^125I]-labeled IGF-1 in 200 or 400 μl of 50 mM citrate-phosphate pH 5, respectively. The integrity of the radiolabeled ligand was assessed by precipitation with 10% trichloroacetic acid (Authier et al, 1995). To measure proteolysis of the unlabeled IGF-1, the samples were acidified with acetic acid (15%) and immediately loaded onto a reverse-phase HPLC column. Reverse-phase HPLC was performed on a Waters model 600 liquid chromatograph equipped with a model U6K sample injector fitted with a […] and a mBondapak C18 column (Waters, 0.39×30 cm, […]). Samples were chromatographed using as eluent a mixture of 0.1% TFA in water (solvent A) and 0.1% TFA in acetonitrile (solvent B) with a flow rate of 1 ml/min. Elution was carried out using two sequential linear gradients followed by an isocratic elution: an initial gradient of 0-20% solvent B (30 min); a second gradient of 20-39% solvent B (15 min); and a third isocratic elution of 39% solvent B (15 min). Eluates were monitored on-line for absorbance at 214 nm with a LC spectrophotometer.

Q: With `CC(C)C[C@H](NC(=O)[C@H]1O[C@@H]1C(=O)O)C(=O)NCCCCN=C(N)N` (relative stereo) [E-64, trans-epoxysuccinyl-L-leucylamido (4-guanidino)-butane] as the compound, how does the “liver colonization by H-59 tumor cells” value (H-59 tumor cells) read?
A: Its value is “inhibited liver colonization”.

Q: And the “tyrosine phosphorylated IRS-1” value [1]?
A: The value was “increase”.

Q: And the “incorporation of 3H-thymidine in response to IGF-I” value (MCF-7 cells; MCF-7)?
A: Its value is “completely abrogated”.

Q: What about the IGF-I induced proliferation (MCF-7 cells; MCF-7, E-64 10 μg/ml) of the same compound?
A: The IGF-I induced proliferation was “abolished”.

Q: And the “reduction in the number of immunolabeled cells” value (human IGF-I receptor; MCF-7, 40 min after addition of ligand)?
A: Its value is 45%.

Q: And the “mean intensity of fluorescence” value (human IGF-I receptor; MCF-7, 40 min after addition of ligand (declining from 255))?
A: The value was 82.

Q: What about the “ligand-induced tyrosine phosphorylation of p52shc” value [2] of the same compound?
A: The value was “increase”.

Q: What about the “IGF-IR mRNA levels” value (IGF-IR) of the same compound?
A: Its value is “In neither of these cell types did E-64 treatment cause a reduction”.

Q: And the “increase in TCA-soluble radioactivity over time (IGF-I proteolysis)” value ([3]; endosomal fractions, radioiodinated IGF-I, 1 hr)?
A: Its value is “completely abolished”.

Q: And the “IGF-I degradation products by reverse phase HPLC” value ([3]; liver parenchymal endosomal fractions, acidic pH)?
A: The value was “absent following E-64 treatment”.

Q: And the “reduction of MMP-2 mRNA synthesis” value (MMP-2; H-59, E-64 10 μg/ml)?
A: Its value is 2 fold.

Q: And the “MMP-2 production and activity” value (MMP-2; Western blotting and gelatin zymography, E-64 10 μg/ml)?
A: Its value is “decreased MMP-2 production and activity”.

Q: And the “number of IGF-I binding sites” value ([4]; H-59, E-64 treated (untreated 3.9×10^5))?
A: The value was 1.8×10^5 sites/cell.

Q: What about the “reduction of the number of IGF-I binding sites” value ([4]; H-59, E-64 treated vs untreated) of the same compound?
A: The value was “more than 2 fold”.

Q: What about the “incorporation of 3H-thymidine in response to IGF-I” value (H-59 cells; H-59) of the same compound?
A: The value was “completely abrogated”.

Q: What about the IGF-I induced proliferation (H-59 cells; H-59, E-64 10 μg/ml) of the same compound?
A: Its IGF-I induced proliferation is “abolished”.

Q: And the “increase in TCA-soluble radioactivity over time (IGF-I proteolysis)” value ([5]; cell lysates, radioiodinated IGF-I, 1 hr)?
A: Its value is “completely abolished”.

Q: And the “IGF-I degradation products by reverse phase HPLC” value ([5]; lysates of E-64-treated tumor cells, acidic pH)?
A: Its value is “absent following E-64 treatment”.
